Experimental data reported in US20220305012A1, “L[…] TREATING SLEEP ISSUES” (EISAI R&D MANAGEMENT CO., LTD., priority 2019, published 2022).

What was measured:
Format in all cases: in vivo, human
[1] = system: Subjects Having Insomnia Disorder; experiment: Example 2: wake after sleep onset (WASO), polysomnography
Protocol: In some embodiments, a sleep parameter is determined objectively using polysomnography. Polysomnography is the monitoring of multiple electrophysiological parameters during sleep and generally includes measurement of EEG activity, electro-oculographic activity and electromyographic activity, as well as other measurements.
WASO—wake after sleep onset: minutes of wake from the onset of persistent sleep until lights on.
(§1) The treatment period lasted for 31 days. Subjects were randomized in a double-blind manner and received placebo, a tablet containing 5 mg of lemborexant, a tablet containing 10 mg of lemborexant, or a tablet containing 6.25 mg of zolpidem ER.
Within 5 minutes of the subject's mean habitual bedtime, study drug was administered and an overnight polysomnogram recording was initiated. At completion of the recording the following morning (Day 2), postural stability and cognitive performance were assessed. On the Day 2 evening, subjects returned to the clinic and a blood sample was collected before administering study drug, and then study drug was administered within 5 minutes of the subject's mean habitual bedtime. Again, a polysomnogram recording was initiated. The next morning (Day 3), postural stability and cognitive performance were assessed. A blood sample was also collected.
On Day 29, subjects returned to the clinic. Study drug was administered within 5 minutes of the subject's mean habitual bedtime and a polysomnogram recording was conducted. On the following morning (Day 30), postural stability and cognitive performance were assessed. After 1.5 hours of waketime, subjects rated their morning sleepiness level.
(§2) On the evening of Day 30, subjects returned to the clinic. A pre-dose blood sample was collected and study drug was again administered within 5 minutes of the subject's mean habitual bedtime. A polysomnogram recording was initiated. The following morning (Day 31), postural stability and cognitive performance were assessed and a blood sample was obtained. The ISI, FSS, EQ-5D-3L and PGI-Insomnia were administered. Blood and urine samples were collected for routine safety assessment. An electrocardiogram was performed, and vital signs and weight were assessed. The eC-SSRS was then administered to the subject. At 1.5 hours after waketime, subjects rated their morning sleepiness level.
Another key secondary endpoint was to determine the change from baseline for mean wake after sleep onset on Days 29 and 30 after administration of 5 mg or 10 mg of lemborexant, compared to placebo.

[2] = system: Subjects Having Insomnia Disorder; experiment: Example 2: subjective wake after sleep onset (sWASO), sleep diary
Excerpt: As used herein, the term “subjective wake after sleep onset”, abbreviated as “sWASO”, means the sum of estimated minutes of wake during the night after initial sleep onset until the time the subject stopped trying to sleep for the night, operationalized as the time the subject got out of bed for the day. In some embodiments, sWASO is derived from data entered in a subject's Sleep Diary. As used herein, an “improvement of sWASO” means a reduction in sWASO.
In some embodiments, sleep diaries were used to assess sleep parameters reported by subjects (i.e., subjective assessments) including subjective sleep onset latency (sSOL), subjective sleep efficiency (sSE), subjective WASO (sWASO), and subjective total sleep time (sTST). Subjects were instructed to complete the Sleep Diary developed based on the consensus Sleep Diary as described in Carney et al., “The consensus sleep diary: standardizing prospective sleep self-monitoring,” Sleep 2012; 35(2):287-302. In some embodiments, the Sleep Diary was used to assess the subject's global perception of quality of sleep on the previous night with the following question: “How would you rate the quality of your sleep last night?” Subjects rated the quality of their sleep on a scale from 1 to 9, with 1 being extremely poor and 9 being extremely good. In some embodiments, the Sleep Diary was used to assess subjective ratings of morning sleepiness with the following question: “How alert/sleepy do you feel this morning?” Subjects rated their sleepiness/alertness level on a Likert scale from 1 to 9, with 1 being extremely sleepy and 9 being extremely alert.
sWASO—subjective wake after sleep onset: sum of estimated minutes of wake during the night after initial sleep onset until the time the subject stopped trying to sleep for the night, operationalized as the time the subject got out of bed for the day.
as §1
Once home, the subject ingested study drug each night prior to bedtime and completed their sleep diary within 1 hour of waketime.

[3] = system: Subjects Having Insomnia Disorder; experiment: Example 2: Insomnia Severity Index Total Score (Items 1-7); conditions: for Insomnia Severity Total Score (Items 1-7), Change from Study Baseline, Mean (SD) / Insomnia Severity Total Score (Items 1-7), Change from Study Baseline, Median / Insomnia Severity Total Score (Items 1-7), Mean (SD) / Insomnia Severity Total Score (Items 1-7), Median: Day 31
Excerpt: (§3) As used herein, the term “Insomnia Severity Index”, abbreviated as “ISI”, is an index calculated using a 7-item, self-report questionnaire assessing the nature, severity, and impact of insomnia (see Bastien, C. H., et al. “Validation of the Insomnia Severity Index as an outcome measure for insomnia research.” Sleep Med. 2001; 2(4): 297-307). The questionnaire evaluates: (1) severity of sleep onset; (2) sleep maintenance; (3) early morning awakening problems; (4) sleep dissatisfaction; (5) interference caused by sleep difficulties with daytime functioning; (6) noticeability of sleep problems by others; and (7) distress caused by the sleep difficulties. A 5-point scale is used to rate each item (0=no problem to 4=very severe problem) yielding a total score from 0 to 28. Total ISI score (items (1)-(7)) and daytime functioning (items (4)-(7)) are analyzed separately.
(§4) On day 1 of the baseline period, subjects were admitted to the clinic and ISI, FSS, and EQ-5D-3L were administered. Blood and urine samples were collected for routine safety assessments, an ECG was performed, and vital signs and weight were assessed. The eC-SSRS was administered. Subjects who completed the baseline period and continued to meet the eligibility criteria were randomized and began the randomization phase.
as §2

[4] = system: Subjects Having Insomnia Disorder; experiment: Example 2: Insomnia Severity Index Daytime Functioning (Items 4-7); conditions: for Insomnia Severity Daytime Functioning (Items 4-7), Change from Study Baseline, Mean (SD) / Insomnia Severity Daytime Functioning (Items 4-7), Change from Study Baseline, Median / Insomnia Severity Daytime Functioning (Items 4-7), Mean (SD) / Insomnia Severity Daytime Functioning (Items 4-7), Median: Day 31
Excerpt: as §3, §4, §2

[5] = First 7 Nights of Treatment, Lemborexant 5 mg
[6] = First 7 Nights of Treatment, Lemborexant 10 mg
[7] = Last 7 Nights of Treatment, Lemborexant 5 mg
[8] = Last 7 Nights of Treatment, Lemborexant 10 mg
[9] = Days 29/30, Zolpidem ER 6.25 mg
[10] = First 7 Nights of Treatment, Zolpidem ER 6.25 mg
[11] = Last 7 Nights of Treatment, Zolpidem ER 6.25 mg

Cc1ncc(OC[C@@]2(c3cccc(F)c3)C[C@H]2C(=O)Nc2ccc(F)cn2)c(C)n1 [Lemborexant, (1R,2S)-2-(((2,4-dimethylpyrimidin-5-yl)oxy)methyl)-2-(3-fluorophenyl)-N-(5-fluoropyridin-2-yl)cyclopropanecarboxamide]
Wake After Sleep Onset, Change from Study Baseline, Mean (SD) ([1]; Days 1/2, Lemborexant 5 mg): −49.96 (39.578) | Wake After Sleep Onset, Change from Study Baseline, Median ([1]; Days 1/2, Lemborexant 5 mg): −46.75 | Wake After Sleep Onset, Mean (SD) ([1]; Days 1/2, Lemborexant 5 mg): 63.48 (31.484) | Wake After Sleep Onset, Median ([1]; Days 1/2, Lemborexant 5 mg): 58.38 | Wake After Sleep Onset, Change from Study Baseline, Mean (SD) ([1]; Days 1/2, Lemborexant 10 mg): −59.59 | Wake After Sleep Onset, Change from Study Baseline, Median ([1]; Days 1/2, Lemborexant 10 mg): −54.50 | Wake After Sleep Onset, Mean (SD) ([1]; Days 1/2, Lemborexant 10 mg): 55.23 | Wake After Sleep Onset, Median ([1]; Days 1/2, Lemborexant 10 mg): 48.75 | Wake After Sleep Onset, Change from Study Baseline, LSM treatment difference: Lemborexant-Zolpidem ([1]; Days 29/30, Lemborexant 5 mg): −7.72 (2.876) | Wake After Sleep Onset, Change from Study Baseline, Mean (SD) ([1]; Days 29/30, Lemborexant 5 mg): −43.89 (39.264) | Wake After Sleep Onset, Change from Study Baseline, Median ([1]; Days 29/30, Lemborexant 5 mg): −39.50 | Wake After Sleep Onset, Mean (SD) ([1]; Days 29/30, Lemborexant 5 mg): 69.10 (34.533) | Wake After Sleep Onset, Median ([1]; Days 29/30, Lemborexant 5 mg): 62.63 | Wake After Sleep Onset, Change from Study Baseline, LSM treatment difference: Lemborexant-Zolpidem ([1]; Days 29/30, Lemborexant 10 mg): −9.10 | Wake After Sleep Onset, Change from Study Baseline, Mean (SD) ([1]; Days 29/30, Lemborexant 10 mg): −46.43 | Wake After Sleep Onset, Change from Study Baseline, Median ([1]; Days 29/30, Lemborexant 10 mg): −46.50 | Wake After Sleep Onset, Mean (SD) ([1]; Days 29/30, Lemborexant 10 mg): 68.60 | Wake After Sleep Onset, Median ([1]; Days 29/30, Lemborexant 10 mg): 62.50 | mean wake after sleep onset ([1]; all lemborexant treatment groups, relative to baseline, placebo and zolpidem treatment groups (Table 15)): reduced | mean subjective wake after sleep onset ([2]; 10 mg, relative to baseline, placebo and zolpidem treatment groups (Table 20)): reduced | Subjective Wake After Sleep Onset, Change from Study Baseline, Mean (SD) [2, 5]: −39.33 (55.022) | Subjective Wake After Sleep Onset, Mean (SD) [2, 5]: 127.37 (78.303) | Subjective Wake After Sleep Onset, Model-adjusted change from baseline [2, 5]: −39.97 | Subjective Wake After Sleep Onset, Change from Study Baseline, Mean (SD) [2, 6]: −55.06 (66.696) | Subjective Wake After Sleep Onset, Mean (SD) [2, 6]: 119.78 (74.825) | Subjective Wake After Sleep Onset, Model-adjusted change from baseline [2, 6]: −53.90 | Subjective Wake After Sleep Onset, Change from Study Baseline, Mean (SD) [2, 7]: −44.51 (58.090) | Subjective Wake After Sleep Onset, Mean (SD) [2, 7]: 119.30 (81.645) | Subjective Wake After Sleep Onset, Model-adjusted change from baseline [2, 7]: −47.55 | Subjective Wake After Sleep Onset, Change from Study Baseline, Mean (SD) [2, 8]: −57.96 (72.791) | Subjective Wake After Sleep Onset, Mean (SD) [2, 8]: 117.08 (83.753) | Subjective Wake After Sleep Onset, Model-adjusted change from baseline [2, 8]: −56.64 | Insomnia Severity Total Score (Items 1-7), Change from Study Baseline, Mean (SD) ([3]; Lemborexant 5 mg): −7.75 (5.474) | Insomnia Severity Total Score (Items 1-7), Change from Study Baseline, Median ([3]; Lemborexant 5 mg): −7.00 | Insomnia Severity Total Score (Items 1-7), Mean (SD) ([3]; Lemborexant 5 mg): 11.24 (5.387) | Insomnia Severity Total Score (Items 1-7), Median ([3]; Lemborexant 5 mg): 11.00 | Insomnia Severity Total Score (Items 1-7), Change from Study Baseline, Mean (SD) ([3]; Lemborexant 10 mg): −7.92 (5.894) | Insomnia Severity Total Score (Items 1-7), Change from Study Baseline, Median ([3]; Lemborexant 10 mg): −7.00 | Insomnia Severity Total Score (Items 1-7), Mean (SD) ([3]; Lemborexant 10 mg): 11.11 (5.639) | Insomnia Severity Total Score (Items 1-7), Median ([3]; Lemborexant 10 mg): 11.00 | mean insomnia severity index total score ([3]; lemborexant treatment groups, relative to baseline and the placebo treatment group (Table 22)): reduced | Insomnia Severity Daytime Functioning (Items 4-7), Change from Study Baseline, Mean (SD) ([4]; Lemborexant 5 mg): −4.83 (3.593) | Insomnia Severity Daytime Functioning (Items 4-7), Change from Study Baseline, Median ([4]; Lemborexant 5 mg): −4.00 | Insomnia Severity Daytime Functioning (Items 4-7), Mean (SD) ([4]; Lemborexant 5 mg): 6.12 (3.488) | Insomnia Severity Daytime Functioning (Items 4-7), Median ([4]; Lemborexant 5 mg): 6.00 | Insomnia Severity Daytime Functioning (Items 4-7), Change from Study Baseline, Mean (SD) ([4]; Lemborexant 10 mg): −4.77 (3.735) | Insomnia Severity Daytime Functioning (Items 4-7), Change from Study Baseline, Median ([4]; Lemborexant 10 mg): −4.00 | Insomnia Severity Daytime Functioning (Items 4-7), Mean (SD) ([4]; Lemborexant 10 mg): 6.10 (3.617) | Insomnia Severity Daytime Functioning (Items 4-7), Median ([4]; Lemborexant 10 mg): 6.00 | mean insomnia severity index daytime score ([4]; lemborexant treatment groups, relative to baseline and the placebo treatment group (Table 23)): reduced

Cc1ccc(-c2nc3ccc(C)cn3c2CC(=O)N(C)C)cc1 [Zolpidem ER, zolpidem, reference compound]
Wake After Sleep Onset, Change from Study Baseline, Mean (SD) ([1]; Days 1/2, Zolpidem ER 6.25 mg): −44.36 (38.074) | Wake After Sleep Onset, Change from Study Baseline, Median ([1]; Days 1/2, Zolpidem ER 6.25 mg): −44.13 | Wake After Sleep Onset, Mean (SD) ([1]; Days 1/2, Zolpidem ER 6.25 mg): 69.92 (33.517) | Wake After Sleep Onset, Median ([1]; Days 1/2, Zolpidem ER 6.25 mg): 62.00 | Wake After Sleep Onset, Change from Study Baseline, Mean (SD) [1, 9]: −36.50 (43.406) | Wake After Sleep Onset, Change from Study Baseline, Median [1, 9]: −34.63 | Wake After Sleep Onset, Mean (SD) [1, 9]: 77.71 (39.932) | Wake After Sleep Onset, Median [1, 9]: 71.00 | Subjective Wake After Sleep Onset, Change from Study Baseline, Mean (SD) [2, 10]: −48.91 (51.761) | Subjective Wake After Sleep Onset, Mean (SD) [2, 10]: 124.83 (75.279) | Subjective Wake After Sleep Onset, Model-adjusted change from baseline [2, 10]: −48.09 | Subjective Wake After Sleep Onset, Change from Study Baseline, Mean (SD) [2, 11]: −63.52 (64.161) | Subjective Wake After Sleep Onset, Mean (SD) [2, 11]: 109.63 (72.583) | Subjective Wake After Sleep Onset, Model-adjusted change from baseline [2, 11]: −62.00 | Insomnia Severity Total Score (Items 1-7), Change from Study Baseline, Mean (SD) ([3]; Zolpidem ER 6.25 mg): −8.26 (6.013) | Insomnia Severity Total Score (Items 1-7), Change from Study Baseline, Median ([3]; Zolpidem ER 6.25 mg): −8.00 | Insomnia Severity Total Score (Items 1-7), Mean (SD) ([3]; Zolpidem ER 6.25 mg): 10.98 (5.452) | Insomnia Severity Total Score (Items 1-7), Median ([3]; Zolpidem ER 6.25 mg): 11.00 | Insomnia Severity Daytime Functioning (Items 4-7), Change from Study Baseline, Mean (SD) ([4]; Zolpidem ER 6.25 mg): −5.24 (3.764) | Insomnia Severity Daytime Functioning (Items 4-7), Change from Study Baseline, Median ([4]; Zolpidem ER 6.25 mg): −5.00 | Insomnia Severity Daytime Functioning (Items 4-7), Mean (SD) ([4]; Zolpidem ER 6.25 mg): 5.87 (3.417) | Insomnia Severity Daytime Functioning (Items 4-7), Median ([4]; Zolpidem ER 6.25 mg): 6.00
